From patent publication EP2397458A1, “Organic salts and co-crystals of phenylbutyric acid” (Lunamed AG, priority 2010, dated 2011) come the findings set out here.

A word on the solubility: it is how much of the substance goes into solution per volume.

Data set [1] is described as follows: Aqueous solubility determination (saturated solution, HPLC; pH of saturated solution). The format is physicochemical. As to conditions: for pH of the corresponding saturated solution: saturated aqueous solution after 24 h at 25°C; for solubility at 24 h: doubly distilled water, after 24 h of equilibration at 25°C. How it is done: (§1) For this measurement approximately 1.0 mL of doubly distilled water was added to 18 mg of the substance according Example 1 to be measured. The resulting suspension was equilibrated in a temperature-controlled Eppendorf Thermomixer Comfort shaker for 24 h at 25°C at a shaking rate of 600 rpm. The solid phase was recovered by filter centrifugation (0.10-µm PVDF membrane) and examined by FT-Raman spectroscopy. Concentrations in the filtrate (i.e., saturated solutions) were determined by HPLC (see below). The pH of the saturated solution was determined with a Metrohm 713 pH meter. HPLC: TSP instrument with P4000 pump, AS3000 autosampler, SCM1000 degasser, UV3000 detector, and PC1000 Vers. 4.1 software. Table 4: HPLC method used for solubility determinations.
as §1, with “8:” for “4:”

The nature of data set [2]: DVS / hygroscopy measurement. In kind it is physicochemical. As to conditions: for hygroscopy: DVS humidity program 50 → 95 → 0 → 50% r.h. How it is done: For the measurement of hygroscopy of the salt a Projekt Messtechnik Sorptions Prüfsystem SPS 11 - 100n was used. (Hygroscopy of the phenylbutyric acid for comparison was measured with the Surface Measurement Systems DVS-1 ). The salt sample was placed on an aluminium (SPS 11) holder (for phenylbutyric acid on a platinum holder (DVS-1)) on top of a microbalance and allowed to equilibrate for 2 h at 50% r.h. before starting the pre-defined humidity program: • (1)2hat50%r.h. • (2) 50 → 95% r.h. (5%/h); 5 h at 95% r.h. • (3) 95 → 0% r.h. (5%/h); 5 h at 0% r.h. • (4) 0 → 50% r.h. (5%/h); 2 h at 50% r.h.
For the measurement of hygroscopy of the salt a Projekt Messtechnik Sorptions Prüfsystem SPS 11 - 100n was used. (Hygroscopy of the phenylbutyric acid for comparison was measured with the Surface Measurement Systems DVS-1). The salt sample was placed on an aluminium (SPS 11) holder (for phenylbutyric acid on a platinum holder (DVS-1)) on top of a microbalance and allowed to equilibrate for 2 h at 50% r.h. before starting the pre-defined humidity program: • (1)2hat50%r.h. • (2) 50 → 95% r.h. (5%/h); 5 h at 95% r.h. • (3) 95 → 0% r.h. (5%/h); 5 h at 0% r.h. • (4) 0 → 50% r.h. (5%/h); 2 h at 50% r.h. […] However, raising the relative humidity further from 80 to 95% r.h. results in a steep gain of -10 wt.-%. Upon lowering the relative humidity, the mass decreases only slightly (by -2.2 w1.-%) until a relative humidity of -60 % r.h. is reached. Then a steep loss of -10 wt.-% occurs until the mass of the starting material is reached at -45% r.h. […] Upon lowering the relative humidity from 50 to 0% r.h. a mass loss of -0.3 wt.-% is observed, but it is fully reversible. At the end of the cycle the sample had essentially the same mass as the starting material. […] A sesquihydrate of the hemi-benzathine salt (1 :0.5:1.5 phenylbutyrate:benzathine:H2O) has a theoretical water content of 9.5 wt.-%. A reversible hydrate formation occurred during the DVS experiment.

Counter-ions that a name gives are not always drawn.

Take `O=C(O)CCCc1ccccc1` [Example 1, 4-Phenylbutyrate-Mono-Benethamine salt]: the “pH of the corresponding saturated solution” value in data set [1] was 7.2. Also, in data set [1] (water, solid residue Raman spectrum unchanged), the solubility at 24 h turned out to be 1900 µg/mL. Further, the hygroscopy entry in data set [2] is reported as “not hygroscopic”; in data set [2] (listed as 4-Phenylbutyrate-Mono-Benethamine salt) it was “non-hygroscopic”.

Consider `O=C(O)CCCc1ccccc1` [Example 2, 4-Phenylbutyrate-Hemi-Benzathine salt], for which the solubility at 24 h in data set [1] (value corresponds to a hydrate of the benzathine salt, not to the anhydrous form) was determined as 1700 µg/mL. In data set [1] (hydrate formed and precipitated during equilibration), the “pH of the corresponding saturated solution” value worked out at 6.2. In data set [2] (DVS, increasing the relative humidity from 50 to 80% r.h.), the gradual mass gain is on record as -1.3 wt.-%. Moreover, in data set [2] (DVS, lowering the relative humidity from 50 to 0% r.h., fully reversible), the mass loss is recorded as -0.3 wt.-%. Besides, the mass decrease in data set [2] (DVS, lowering the relative humidity from 95% until -60 % r.h. is reached) was -2.2 w1.-%. Besides, the “steep loss (mass)” value in data set [2] (DVS, lowering the relative humidity from -60 % r.h. until -45% r.h. (mass of starting material reached)) is on record as -10 wt.-%. The “steep gain (mass)” value in data set [2] (DVS, raising the relative humidity from 80 to 95% r.h.) is recorded as -10 wt.-%.
